“Also recorded” adds a separate entry of the source. Where a SMILES comes first, the peptide text is derived from it. The star is where a group is joined. Cbz = O=C(OCc1ccccc1)*; CH2F = FC*
Experiments:
[1] = system: bovine cartilage explants; assay: Apoptosis (TUNEL) in mechanically injured bovine cartilage explants; type: cell-based; settings: for Mean (±SD) apoptosis rates, Loaded + Agent: bovine femoral condyle cartilage, loaded at 23 MPa, in vitro, n = 8 to 10
Excerpt: Cartilage explants. Macroscopically normal weight bearing portions of freshly slaughtered skeletally mature bovine femoral condyles were selected from animals between 2 and 6 years of age (Animal Technologies, Austin, Tex.). Only joints without visible signs of degeneration or aging were selected. Using sterile techniques, full thickness cartilage was separated from underlying subchondral bone with a scalpel and 5 mm diameter cylindrical explants, ranging from 1 to 1.8 mm in height, cored out using a dermal punch (Acuderm, Inc., Ft. Lauderdale, Fla.). Explants taken from adjacent sites were used as matched controls for each group in each experiment to minimize variation in cartilage response due to differences in thickness and location within the joint. Each explant was weighed and allowed to stabilize at 37° C. and 5% CO2 for 48 hours in 1 ml of Dulbecco's modified Eagle's medium (DMEM) supplemented with 10% fetal bovine serum (FBS), L-glutamine, antibiotics and 50 μg/ml ascorbic acid.
Full thickness bovine cartilage explants, 5 mm in diameter, were subjected to a single static mechanical load of 7, 14 or 23 MPa for 500 msec. This model simulates traumatic cartilage injury and the loads were similar in magnitude to those generated during traumatic joint injury. Glycosaminoglycan (GAG) release and percent apoptotic cells were measured. The effect of a pan-caspase inhibitor, z-VAD.fmk [benzyloxycarbonyl-Val-Ala-Asp (OMe) fluoromethylketone] in preventing chondrocyte apoptosis was determined. z-VAD.fmk is a fluoromethylketone irreversible inhibitor of a broad spectrum of caspases. […] The percentage of apoptotic chondrocytes was related to load intensity and correlated with the level of GAG release from cartilage. […] This identifies a new approach to limit traumatic cartilage injury and the subsequent development of secondary osteoarthritis.
Loading apparatus and procedure. A model to simulate acute joint injury was used in this study based on injury models reported by Repo and Finlay, and Jeffrey et al. (Repo, et al. (1977) J. Bone Joint Surg. Am. 59A, 1068-1076, Jeffrey, et al. (1995) Arch. Biochem. Biophys. 322, 87-96). Although these reported models impacted cartilage using drop towers, a more controlled method was chosen for applying and maintaining stress or strain as follows. An Instron 8511 servohydraulic testing machine (Instron Corporation, Boston, Mass.) was used to mechanically load the cartilage explants. Explants were transported from the incubator to the Instron machine in sealed cell culture dishes. The explant was centralized on a stainless steel loading platform and a radially unconfined compressive load was applied through an impermeable stainless steel platen. A small preload (0.1 MPa) was applied for 2 minutes, followed by a single 500 msec trapezoidal loading waveform at the selected stress. The stress rose from 0.1 MPa to the chosen stress level in 100 msec and was maintained for 500 msec. Three stress levels were chosen to represent acute joint injury. 7 MPa has been reported to be the upper limit of physiologic stress developed during activities of daily living (von Eisenhart, et al. (1999) J. Orthop. Res. 17, 532-539). 23 MPa is the stress above which the underlying bone has been reported to fracture (Haut (1989) J. Orthop. Res. 7, 272-280). Control explants were placed in the loading apparatus but not loaded. […] Stress and strain data were recorded during the test. […]

[2] = system: bovine cartilage explants; assay: Glycosaminoglycan release assay (DMMB) in injured bovine cartilage explants; type: cell-based; settings: bovine explants after mechanical injury, z-VAD.fmk 100 μM, 48 hours
Protocol: Glycosaminoglycan release assay. To estimate GAG depletion and release, the concentration of sulfated glycosaminoglycans was measured using […] (DMMB) as a monitor of spectrophotometric changes which occur during the formation of the sulfated GAG dye complex (Farndale, et al. (1986) Biochim. Biophys. Acts. 883, 173-177, Goldberg, et al. (1993) Agents Actions 39 Spec No, C163-C165). For GAG content measurement, samples were digested in papain and collagenase and the concentration of sulfated GAG measured using DMMB. To generate a standard curve, chondroitin-6-sulfate (Sigma, St. Louis, Mo.) was used at concentrations between 1 and 200 μg/ml. GAG released in media was normalized to the pooled mean GAG content of Control (uninjured) cartilage explants and expressed as a percentage of total GAG content.
Inhibition of apoptosis. To determine whether apoptosis could be prevented by caspase inhibition, 12 explants were loaded at 23 MPa (High Load) and cultured for 48 hours. […] Percent apoptosis and GAG release in media was measured as described above.
Release of sulfated glycosaminoglycans (GAG) was analyzed as a measure of the extent of damage sustained by the explant. […] GAG depletion was assessed by dimethylene blue binding assays of the culture supernatants and this correlated with the reduced of safranin O staining of the cartilage sections.

[3] = system: femoral and tibial articular cartilage; assay: Intraarticular injection of caspase inhibitor in rabbits with anterior cruciate ligament transection (ACLT); type: in vivo, New Zealand White rabbits; settings: rabbit bilateral ACLT, 25 μg intra-articular three times per week for six weeks
Protocol: Intraarticular injection of caspase inhibitor in rabbits with ligament transection. A pilot study was performed to assess feasibility and efficacy of caspase inhibition in vivo. Eight New Zealand White rabbits were divided into anterior cruciate ligament transection (ACLT) and ACLT+ caspase inhibitor (CI) groups. Both groups underwent bilateral ACLT. The ACLT+CI group was treated with intra-articular injections of 25 μg of z-VAD.fmk three times per week for six weeks while the control group received saline injections. Rabbits were euthanised at six weeks and femoral and tibial articular cartilage evaluated by India ink staining and histologic Mankin grading after Safranin-O stain.
Histologically, more knees from the ACLT group had higher Mankin scores. 87% (⅞) ACLT knees had grades 5 or higher, while 50% ( 4/8) ACLT+CI knees were graded 5 or higher. The India ink stained femoral condyles were photographed and digital images were used to quantify the surface areas of the lesions.

human cartilage explants = assay: Apoptosis (TUNEL) in mechanically injured human cartilage explants; type: cell-based; settings: for Mean (±SD) apoptosis rates, Loaded + Agent: human cartilage (femoral condyles and tibial plateaus), in vitro, n = 8 to 10
Excerpt: Cartilage explants. Macroscopically normal tibial and femoral articular surfaces were selected from human cadaver donors between 18 and 45 years of age. Using sterile techniques, full thickness cartilage was separated from underlying subchondral bone with a scalpel. 5 mm diameter cylindrical explants, ranging from 2 to 2.8 mm in thickness, cored out using a dermal punch (Acuderm, Inc., Ft. Lauderdale, Fla.). Explants taken from adjacent sites were used as matched controls for each group in each experiment to minimize variation in cartilage response due to differences in thickness and location within the joint. Each explant was weighed and allowed to stabilize at 37° C. and 5% CO2 for 48 hours in Dulbecco's modified Eagle's medium (DMEM) supplemented with 5% fetal bovine serum (FBS), L-glutamine, antibiotics and […] ascorbic acid.
Loading apparatus and procedure. An Instron 8511 servohydraulic testing machine (Instron Corporation, Boston, Mass.) was used to mechanically load the cartilage explants. Explants were transported from the incubator to the Instron machine in sealed cell culture dishes. The total time duration of loading for a single experiment varied from approximately 1 to 2 hours depending on the number of samples. During this time, explants were maintained at 37° C. The explant was centralized on a stainless steel loading platform and a radially unconfined compressive load was applied through an impermeable stainless steel platen. […] Stress and strain data were recorded during the test.
Caspase inhibition. […] Percentage apoptosis was measured at 96 hours post-injury in three groups (control, loaded, and loaded with z-VAD.fmk) with ten explants each in two separate experiments.
Apoptosis detection. […] This was detected by immunohistochemical staining with M30 (Cytodeath, Boehringer Mannheim, Eugene, Oreg.), a monoclonal antibody that recognizes the neo-epitope exposed in early apoptosis.
Chondrocyte apoptosis after mechanical injury to human cartilage. […] GAG release and percentage of cells undergoing apoptosis were measured at 96 hours after injury. […]

Molecule	Mean (±SD) apoptosis rates, Loaded + Agent [1]	GAG release / GAG depletion [2]	GAG release / GAG depletion ([2]; listed as pan-caspase inhibitor)	reduction of the size of the cartilage lesions (surface area, India ink stained femoral condyles) [3]	knees with histologic Mankin grades 5 or higher ([3]; 4/8 knees, ACLT saline group 87%)	cartilage lesions under India ink examination (area, grade) ([3]; ACLT group grade III to IVa, listed as caspase inhibitor)	chondrocyte apoptosis after mechanical injury (result in words) ([1]; bovine explants, z-VAD.fmk 100 μM, 23 MPa, 48 hours)	reduction in the apoptosis rate ([1]; high and intermediate load groups, bovine explants)	Mean (±SD) apoptosis rates, Loaded + Agent (human cartilage explants; loaded at 23 MPa)	mean reduction in apoptotic rates (human cartilage explants; human explants cultured in z-VAD.fmk immediately after injury, 30% strain, 96 hours post-injury)	Mean (±SD) apoptosis rates, Loaded + Agent (human cartilage explants; loaded at 30% strain)
C[C@@H]1C[C@H]2[C@@H]3CCC4=CC(=O)C=C[C@]4(C)[C@@]3(F)[C@@H](O)C[C@]2(C)[C@@]1(O)C(=O)CO [Dexameth.]	47 (±11.2) %	–	–	–	–	–	–	–	–	–	–
COC(=O)CC(NC(=O)C(C)NC(=O)C(NC(=O)OCc1ccccc1)C(C)C)C(=O)CF (stereo not drawn) [z-VAD.fmk, benzyloxycarbonyl-Val-Ala-Asp (OMe) fluoromethylketone] (Cbz-Val-Ala-Asp(OMe)-CH2F; configuration not given here)	31 (±13.9) %	normalization of the GAG depletion	reduction in GAG release	~80%	50%	lesions that were smaller in area; also recorded: ranged from II (minimum fibrillation)	reduced chondrocyte apoptosis	> 50%	34 (±10.2) %	50%	–
IGF-1: agent IGF-1 tested for pharmacologic modulation of apoptosis after cartilage injury in vitro	42 (±10.9) %	–	–	–	–	–	–	–	–	–	10 (±6.2) %
